# Measured values taken from patent publication US20230364204A1, “Bioactive Peptides, Compositions, Production Process, and Use of Bioactive Peptides as Anti-Tumoral Agents” (priority 2022, published 2023).
# Tested on: MDA-MB-231 cells implanted in zebrafish larvae
# Assay: Zebrafish xenograft model of MDAMB231 (primary tumor and metastasis)
# Assay type: in vivo
# Protocol: Transgenic Tg(fli1:EGFP)y1 zebrafish embryos were raised at 28° C. for 48 hours in E3 embryo medium 0.2 mM 1-Phenyl-2-Thiourea aka PTU. […] MDA-MB-231 cells were labeled with Dil red fluorescent dye. Approximately 700 Dil Labeled cancer cells were subcutaneously co-implanted into the perivitelline space of 2 days old larvae ± 3-NantC peptide at […]. Larvae in which tumor cells had been inadvertently injected into circulation or larvae with erroneous implantation of the tumor in the yolk rather than the perivitelline space were excluded from the study. Selected tumor bearing embryos were sorted into experimental groups (20 embryos/group), and pictures of primary tumors were taken right after injection. Doxorubicin treatment was added to embryo water at 2.5 µg/mL according to the study plan. Tumor-bearing embryos were incubated in E3/PTU medium for 72 h at 36° C. After incubation, pictures of the primary tumors and the CVP were taken using a red fluorescent filter. Larvae that died or were lost by other means during the study were excluded from the final analysis.
# Images obtained right after implantation (day 0) and after 72 h incubation (day 3) were analyzed by using in-house developed software. Tumor growth regression was calculated and normalized to the negative control group. The number of metastasized cells was counted manually. One-way ANOVA was performed followed by two-tailed Student’s t-test. Definitive outliers were detected using the ROUT method with a Q=1%. Graphs and example images, and experimental data were obtained/analyzed by using GraphPad Prism v9.0.2.
smiles,measurement,setting,value
"CSCC[C@H](N)C(=O)N[C@@H](Cc1ccccc1)C(=O)N[C@@H](Cc1ccc(O)cc1)C(=O)N1CCC[C@H]1C(=O)N[C@@H](CC(=O)O)C(=O)N[C@@H](CO)C(=O)N[C@@H](CCCNC(=N)N)C(=O)N[C@@H](CS)C(=O)N[C@@H](CCCNC(=N)N)C(=O)NCC(=O)N1CCC[C@H]1C(=O)N[C@@H](CO)C(=O)N[C@@H](CCC(=O)O)C(=O)N[C@H](C(=O)O)[C@@H](C)O [3-NAntC, [H]-MFYPDSRCRGPSET-[OH]]",decrease of metastatic cells,75 and 125 mg/mL,about 60%
same,decrease of tumor cells (primary tumor),"72 h, 3-NantC co-implanted at 75, 100 or 125 mg/mL, Doxorubicin 2.5 µg/mL in embryo water",75%
same,decrease in metastatic cells,very low concentrations (FIG. 17),about 40%
